Like-named read-outs stand apart in the source and are kept apart here.
Legend:
Format in all cases: cell-based
[1] = test system: IgG production by human lymphocytes; assay: Inhibition of IgG production by human lymphocytes in vitro (SAC activation, ELISA); settings: 8 days, vehicle control 0.78 ± 0.09
Text: (§1) General Test Description Humoral immunity comprises one of the two major arms of the immune system and generally is beneficial. However, a number of disease states are characterized by a hyperactive immune system responding to self tissue antigens. […] In these diseases it would be important to suppress the humoral immune system.
(§2) In the following studies we used established methods to examine the effect of Vitamin D derivatives on the in vitro production of immunoglobulin (Ig) by human peripheral blood leukocytes (PBL) following polyclonal activation. Immunoglobulin was induced from PBL by co-culturing the PBL with the polyclonal B cell activator Staphylococcus aureus strain Cowan I (SAC) for a period of 8 days. The quantity of Ig produced in the culture supernatants was determined by using an enzyme linked immunosorbent assay (ELISA). The effect of Vitamin D derivatives was determined by comparing the amount of antibody produced in cultures containing Vitamin D derivatives to those cultures containing an appropriate concentration of vehicle (ethanol).
(§3) Solutions of vitamin D derivatives. Stock solutions of vitamin D derivatives were prepared as described previously for the murine CTL experiments.
(§4) INDUCTION OF HUMAN IG SECRETION Human peripheral blood mononuclear leukocytes were prepared from one day old buffy coat preparations obtained from the American Red Cross (Lansing, MI). […] Twenty five ml of this preparation were overlayed onto 25 ml of Ficoll-Paque contained in a 50 ml polypropylene centrifuge tube. After centrifugation at 400×g at 15° C. for 40 min, the cells at the interface of the medium and Ficoll were removed and washed 3 times in 50 ml RPMI medium and centrifuged at 300×g for 10 minutes. After the final centrifugation,the cell pellet was suspended in RPMI medium containing 20% fetal bovine serum (FBS) and 80 μg/ml gentamicin. The number of viable cells was determined by trypan blue exclusion and were then suspended to 2.5×10^6 viable cells per ml in RPMI containing 20% FBS and gentamicin. Human PBL were induced to secrete Ig as follows. One hundred microliters of the PBL suspension and an additional 100 μl of a 1:20,000 (v/v) preparation of SAC suspended in RPMI containing 1% FBS were added to each well of a 96-well microtiter plate. Selected wells were also set up without the addition of SAC to serve as negative controls (spontaneous Ig secretion). Each well then received 20 μl of either the appropriate dilution of Vitamin D derivative in RPMI with 1% ethanol or RPMI with 1% ethanol (vehicle control). The vitamin D derivatives were tested at final concentrations of 10^-5, 10^-6, 10^-7, 10^-8, 10^-9, and 10^-10 M and in all cases the vehicle (ethanol) concentration was 0.1%. All treatments were performed in triplicate. […] The samples were then either assayed immediately or stored at -20° C. until assayed by the ELISA technique described below.
(§5) QUANTITATION OF SECRETED IG (ELISA ASSAY) ELISA plates were prepared for quantitating human IgG and IgM levels in culture supernatants as follows. Affinity purified sheep anti-human IgG and goat anti-human IgM (Cappel, Cochranville, PA) were diluted 1:250 and 1:400 respectively, in carbonate coating buffer (0.05M sodium bicarbonate, 0.05M sodium carbonate, 0.15M sodium chloride). One hundred and fifty microliters of the antibody preparation were added to each well of a 96 well ELISA plate (EIA, Costar). The plates were sealed and incubated overnight at 4° C. and on the following day were washed 3 times with distilled water. Each well then received 350 μl of Dulbecco's PBS containing 1 mg/ml bovine serum albumin (BSA) and 0.5 mg/ml sodium azide. The plates were allowed to incubate for 1 hour at 37° C. and then washed 3 times with Dulbecco's PBS containing 0.5% stock Tween 20 (PBS-Tween) followed by 2 washes with distilled water. The plates were air dried and stored desiccated under a vacuum at 4° C. until use.

[2] = test system: human cytotoxic T-lymphocyte responses; assay: Inhibition of human CTL responses (mixed leukocyte-tumor cultures, HT-144 melanoma, ^51 Cr release); settings: donor I, 0.01% ethanol, effector to target 6:1
Experimental: Human cells for the tests described below were taken from four donors designated I, II, III, and IV in the tables below.
Stock solutions of Vitamin D derivatives were prepared as they were prepared above in the murine tests.
Human cytotoxic T-lymphocytes were generated in mixed leukocyte-tumor cultures by known methods. Specifically, blood from normal volunteer donors was drawn into heparinized syringes, diluted 1:1 with calcium-magnesium free Hanks' balanced salt solution (Ca-Mg free HBSS), and layered over lymphocyte separation medium (Litton Bionetics, Kensington, MD). After centrifugation at 500xg for 20-30 min at room temperature, peripheral blood mononuclear cells were harvested from the interface. The peripheral blood mononuclear leukocytes were centrifuged and resuspended in Ca-Mg free HBSS and were subsequently separated from platelets by centrifugation at 500xg through a solution of 20% sucrose and 1% human AB serum in Ca-Mg free HBSS. The cells were washed once and finally resuspended in tissue culture medium. […] Cells to be used as stimulator cells in mixed leukocyte-tumor cultures were irradiated with 10,000 rads of gamma irradiation to preclude proliferation in culture. Mixed leukocyte-tumor cell cultures were established in 16 mm tissue culture wells at a final volume of 1.5 ml per well containing 2×10^6 peripheral blood mononuclear leukocytes and 5×10^4 irradiation-inactivated stimulator cells. In order to prevent the generation of nonspecific cytotoxic cells in these cultures, hydrocortisone sodium succinate was added to each culture at a final concentration of 1×10^-5 M. Mixed leukocyte-tumor cultures were incubated for 6 days in a humidified atmosphere of 5% CO2 in air.
Labelled target cells were washed free of unbound isotope by 3 serial washes in tissue culture medium and were finally resuspended at a concentration of 5×10^4 cells per ml.
Assays of human cytotoxic T-lymphocytes were done by known methods. Specifically, one-tenth ml aliquots of ^51 Cr-labelled target cell suspension were added to "half area" microtest plates and were incubated at 37° C. for 18 hours in a humidified atmosphere of 5% CO2 in air to permit the cells to adhere and spread on the floor of each well. Culture medium was then aspirated from each well and was replaced with 0.1 ml of tissue culture medium containing cells harvested from mixed leukocyte-tumor cultures which had been processed as described for murine mixed leukocute cultures, above. Control wells for measurement of spontaneous ^51 Cr release received medium without effector cells and wells for measurement of maximal releasable ^51 Cr received 0.1 ml of 2% sodium dodecyl sulfate in distilled water. After overnight incubation at 37° in a humidified atmosphere of 5% CO2 in air, 0.05 ml of cell-free supernatant was withdrawn from each well and the amount of released ^51 Cr was quantitated using a gamma spectrometer. The percentage of specific ^51 Cr release (CTL activity) and the percent inhibition of CTL activity were calculated with the same formulas used above for the murine CTL assay.
Tests conducted on human cytotoxic T-lymphocyte responses are reported as the mean±standard error of the mean from triplicate ^51 Cr release determinations on pooled cells from duplicate control or test cultures.

[3] = test system: IgM production by human lymphocytes; assay: Inhibition of IgM production by human lymphocytes in vitro (SAC activation, ELISA); settings: 8 days, vehicle control 2.49 ± 0.17
Text: as §1, §2, §3, §4, §5

C=C1/C(=C\C=C2/CCC[C@]3(C)[C@@H]([C@H](C)CC[C@@H](F)C(C)(C)O)CC[C@@H]23)C[C@@H](O)C[C@@H]1O [24R-F--1α,25-(OH)2 --D3, 1α,25-Dihydroxy-24R-fluorocholecalciferol]
IgG μg per culture (x ± S.E.M.) ([1]; 1 × 10^-6 molar): undetectable
IgG μg per culture (x ± S.E.M.) ([1]; 1 × 10^-7 molar): 0.01 ± 0.002 μg per culture
IgG μg per culture (x ± S.E.M.) ([1]; 1 × 10^-8 molar): 0.10 ± 0.02 μg per culture
IgG μg per culture (x ± S.E.M.) ([1]; 1 × 10^-9 molar): 0.22 ± 0.05 μg per culture
IgG μg per culture (x ± S.E.M.) ([1]; 1 × 10^-10 molar): 0.21 ± 0.06 μg per culture
inhibition at 1 µM ([2]; Homo sapiens, T-lymphocyte, Test 1, 1 × 10^-6 molar, read-out: Inhibition of CTL activity (%)): 87%
inhibition at 0.1 µM ([2]; Homo sapiens, T-lymphocyte, Test 1, 1 × 10^-7 molar, read-out: Inhibition of CTL activity (%)): 62%
inhibition at 10 µM ([2]; Homo sapiens, T-lymphocyte, Test 2, 1 × 10^-5 molar, read-out: Inhibition of CTL activity (%)): 94%
inhibition at 1 µM ([2]; Homo sapiens, T-lymphocyte, Test 2, 1 × 10^-6 molar, read-out: Inhibition of CTL activity (%)): 100%
CTL activity (% specific ^51 Cr release) ([2]; Test 1, 1 × 10^-6 molar): 7 ± 6 % specific ^51 Cr release
CTL activity (% specific ^51 Cr release) ([2]; Test 1, 1 × 10^-7 molar): 20 ± 1 % specific ^51 Cr release
CTL activity (% specific ^51 Cr release) ([2]; Test 2, 1 × 10^-5 molar): 3 ± 4 % specific ^51 Cr release
CTL activity (% specific ^51 Cr release) ([2]; Test 2, 1 × 10^-6 molar): 0 ± 3 % specific ^51 Cr release
IgM μg per culture (x ± S.E.M.) ([3]; 1 × 10^-6 molar): undetectable
IgM μg per culture (x ± S.E.M.) ([3]; 1 × 10^-7 molar): 0.12 ± 0.06 μg per culture
IgM μg per culture (x ± S.E.M.) ([3]; 1 × 10^-8 molar): 1.23 ± 0.03 μg per culture
IgM μg per culture (x ± S.E.M.) ([3]; 1 × 10^-9 molar): 3.13 ± 0.41 μg per culture
IgM μg per culture (x ± S.E.M.) ([3]; 1 × 10^-10 molar): 3.84 ± 0.72 μg per culture
